Data published in patent US7999006B2, “Methods of using MEK inhibitors” (Exelixis, Inc., priority 2006, dated 2011).

System: WM-266-4 xenograft tumors
Assay: WM-266-4 human melanoma xenograft model
Type: in vivo
Conditions: WM-266-4 xenograft tumors in female nude mice, staged at 112±6 mg; MEK compound 10 mg/kg PO qd x 14 (AM); rapamycin 5 mg/kg IP qd x 14 (PM); single agents or combination
Experimental: For subcutaneous or intradermal tumors, the mean tumor weight of each animal in the respective control and treatment groups was determined twice weekly during the study. Tumor weight (TW) was determined by measuring perpendicular diameters with a caliper, using the following formula: tumor weight (mg)=[tumor volume=length (mm)×width^2 (mm^2)]/2.
Percent inhibition of tumor growth (TGI) is determined with the following formula:
[formula] where X0=average TW of all tumors on group day; Xf=TW of treated group on Day f; Yf=TW of vehicle control group on Day f
[formula] TGI is calculated individually for each tumor to obtain a mean±SEM value for each experimental group. Statistical significance is determined using the 2-tailed Student's t-test (significance defined as P<0.05).
The WM-266-4 human melanoma cell line is PTEN-deficient, and harbors a heterozygous activating mutation in the gene encoding B-Raf. Therefore, the ability of a MEK inhibitor administered as monotherapy, and in combination with the mTOR inhibitor rapamycin, was examined to inhibit the growth of WM-266-4 xenograft tumors in nude mice.
Tumors were established in female nude mice and staged when the tumors reached 112±6 mg. […]

## CO[C@H]1C[C@@H]2CC[C@@H](C)[C@@](O)(O2)C(=O)C(=O)N2CCCC[C@H]2C(=O)O[C@H]([C@H](C)C[C@@H]2CC[C@@H](O)[C@H](OC)C2)CC(=O)[C@H](C)/C=C(\C)[C@@H](O)[C@@H](OC)C(=O)[C@H](C)C[C@H](C)/C=C/C=C/C=C/1C [Rapamycin, rapamycin]
  TGI (%), tumor growth inhibition: 60%
